Reference: patent publication US20220062240A1, “METHODS OF TREATING CANCER USING A CLK INHIBITOR” (BioSplice Therapeutics, Inc., priority 2018, published 2022)
Read-outs that look alike come from different tables or passages of the source. Values belong to the compound of their own block, whether it stands above or below them.

What was measured:
CLK2 = target: T1, CLK2 (Homo sapiens, UniProt P49760); experiment: CLK2 kinase activity assay (Z-lyte, Ser/Thr 6 peptide); type: biochemical; conditions: recombinant CLK2 kinase, ATP 60 μM; read-out: EC50
T1 construct: purchased Thermo Fisher (Life Technologies), Z'-LYTE Kinase Assay Kits
Experimental: All reactions were performed in duplicate.

CLK3 = CLK3 (Homo sapiens, UniProt P49761); experiment: CLK3 kinase activity assay (Z-lyte, Ser/Thr 18 peptide)
[1] = test system: Wnt-responsive Sp5-Luc reporter in SW480 colon carcinoma cells; experiment: Wnt activity screening assay (Sp5-Luc reporter); type: cell-based; conditions: Homo sapiens; SW480 Sp5-Luc reporter, 36 to 48 hours; read-out: EC50
From the text: The screening assay for Wnt activity is described as follows. Reporter cell lines can be generated by stably transducing cancer cell lines (e.g., colon cancer) or primary cells (e.g., IEC-6 intestinal cells) with a lentiviral construct that includes a Wnt-responsive promoter driving expression of the firefly luciferase gene.
SW480 colon carcinoma cells were transduced with a lentiviral vector expressing luciferase with a human Sp5 promoter consisting of a sequence of eight TCF/LEF binding sites. […] These stably transduced SW480 cells were expanded in cell culture and used for all further screening activities. […] For Sp5-Luc reporter gene assays, the cells were plated at 4,000 cells/well in 384-well plates with a DMEM medium containing 1% fetal bovine serum, and 1% Penicillin-Streptomycin and incubated for 36 to 48 hours at 37° C. and 5% CO2. Following incubation, 15 μL of BriteLite Plus luminescence reagent (Perkin Elmer) was added to each well of the 384-well assay plates. The plates were placed on an orbital shaker for 2 min and then luminescence was quantified using the Envision (Perkin Elmer) plate reader.

[2] = test system: SW480 colorectal cancer cells; experiment: Gene expression qRT-PCR in SW480 cells; type: cell-based; conditions: Homo sapiens, SW480, 3 μM, 24 hours, relative to DMSO
Experimental: SW480 colorectal cancer cells were plated at 1×10^4 cells per well into 96-well plates (Olympus). Compounds were diluted in cell culture media and added to the cells at a final concentration of 3 μM. Cells were treated with vehicle (DMSO) and compounds for 24 hours. N=3 biological replicates per conditions.
Following treatment, cells were lysed, and cDNA was generated using the Fastlane Cell cDNA Kit (Qiagen).
384-well PCR plates with pre-spotted primers for CLK1, CLK2, CLK3, DVL2, LRP5, SRSF1, SRSF3, SRSF4, SRSF5, TCF7, TCF7L2 were ordered from Bio-Rad. The generated cDNA, along with a SYBR Green qRT-PCR master mix (SsoAdvanced™ Universal SYBR® Green Supermix, Bio-Rad) was added to the PCR plates.
qRT-PCR was performed on the plates using a CFX384 Touch™ Real-Time PCR Detection System (Bio-Rad) with the manufacturer's recommended thermal cycling conditions.
Data from the qRT-PCR assay was normalized to the GAPDH and HPRT1 housekeeping genes and set gene expression fold change was set relative to vehicle-treated cells using the ΔΔCt analysis method.

[3] = read-out: gene expression fold change CLK1
[4] = read-out: gene expression fold change CLK2
[5] = read-out: gene expression fold change CLK3
[6] = read-out: gene expression fold change DVL2
[7] = read-out: gene expression fold change LRP5
[8] = read-out: gene expression fold change SRSF1
[9] = read-out: gene expression fold change SRSF3
[10] = read-out: gene expression fold change SRSF4
[11] = read-out: gene expression fold change SRSF5
[12] = read-out: gene expression fold change TCF7
[13] = read-out: gene expression fold change TCF7L2

Chain of CLK3 (P49761 whole entry): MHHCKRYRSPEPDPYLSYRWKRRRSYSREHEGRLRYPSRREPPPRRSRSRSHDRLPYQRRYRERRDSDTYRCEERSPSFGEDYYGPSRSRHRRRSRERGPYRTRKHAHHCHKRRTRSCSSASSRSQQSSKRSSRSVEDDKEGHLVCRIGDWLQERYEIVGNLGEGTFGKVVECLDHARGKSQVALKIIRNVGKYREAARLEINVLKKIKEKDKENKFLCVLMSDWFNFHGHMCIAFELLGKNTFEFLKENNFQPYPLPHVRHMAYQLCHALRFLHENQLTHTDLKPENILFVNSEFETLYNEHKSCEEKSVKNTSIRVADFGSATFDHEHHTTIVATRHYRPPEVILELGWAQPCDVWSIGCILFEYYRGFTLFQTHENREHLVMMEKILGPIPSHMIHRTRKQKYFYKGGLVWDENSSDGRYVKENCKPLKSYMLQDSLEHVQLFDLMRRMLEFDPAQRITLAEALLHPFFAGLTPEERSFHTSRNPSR
T1 sequence (P49760 whole entry): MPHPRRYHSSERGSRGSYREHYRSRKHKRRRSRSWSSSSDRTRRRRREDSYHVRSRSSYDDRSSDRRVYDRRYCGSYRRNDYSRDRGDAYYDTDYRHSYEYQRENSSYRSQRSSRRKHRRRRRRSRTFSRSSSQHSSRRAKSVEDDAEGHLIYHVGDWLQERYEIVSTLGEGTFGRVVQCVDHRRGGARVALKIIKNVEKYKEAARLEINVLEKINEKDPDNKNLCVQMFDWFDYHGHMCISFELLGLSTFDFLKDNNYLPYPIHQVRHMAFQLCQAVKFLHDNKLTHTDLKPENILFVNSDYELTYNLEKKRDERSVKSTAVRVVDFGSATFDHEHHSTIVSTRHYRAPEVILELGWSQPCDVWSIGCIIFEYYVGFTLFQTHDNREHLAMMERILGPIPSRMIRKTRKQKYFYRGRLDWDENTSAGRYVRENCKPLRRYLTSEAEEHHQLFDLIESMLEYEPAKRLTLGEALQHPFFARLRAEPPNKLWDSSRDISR

EC50 [1]: 165 nM
EC50 (CLK2): 1 nM
Structure (SMILES): Cc1ncc(C(=O)Nc2cc3cc(-c4cnc(C)n4C)ccc3cn2)s1 [Compound 16]
fold induction at 3 µM [2, 3]: 0.22
fold induction at 3 µM [2, 4]: 0.06
fold induction at 3 µM [2, 5]: 0.59
fold induction at 3 µM [2, 6]: 0.18
fold induction at 3 µM [2, 7]: 0.17
fold induction at 3 µM [2, 8]: 1.92
fold induction at 3 µM [2, 9]: 0.61
fold induction at 3 µM [2, 10]: 0.66
fold induction at 3 µM [2, 11]: 0.54
fold induction at 3 µM [2, 12]: 0.21
fold induction at 3 µM [2, 13]: 0.14

EC50 [1]: 133 nM
EC50 (CLK2): 4 nM
EC50 (CLK3): 40 nM
Structure (SMILES): c1cncc(-c2ccc3[nH]nc(-c4nc5ccncc5[nH]4)c3c2)c1 [Compound 43]

EC50 [1]: 773 nM
EC50 (CLK2): 2 nM
EC50 (CLK3): 18 nM
Structure (SMILES): CN(C)Cc1cncc(-c2ccc3[nH]nc(-c4nc5c(-c6cc(F)cc(CNS(C)(=O)=O)c6)ccnc5[nH]4)c3c2F)c1 [Compound 41]

EC50 [1]: 151 nM
EC50 (CLK2): 1 nM
Structure (SMILES): O=C(Nc1cc2cc(-c3cncc(NCC4(F)CNC4)n3)ccc2cn1)C1CC1 [Compound 21]
fold induction at 3 µM [2, 3]: 0.02
fold induction at 3 µM [2, 4]: 0.03
fold induction at 3 µM [2, 5]: 0.05
fold induction at 3 µM [2, 6]: 0.15
fold induction at 3 µM [2, 7]: 0.07
fold induction at 3 µM [2, 8]: 0.22
fold induction at 3 µM [2, 9]: 0.07
fold induction at 3 µM [2, 10]: 0.03
fold induction at 3 µM [2, 11]: 0.16
fold induction at 3 µM [2, 12]: 0.48
fold induction at 3 µM [2, 13]: 0.1

EC50 [1]: 13 nM
Structure (SMILES): NC(=O)c1ccc(NC(=O)c2n[nH]c3ccc(-c4cncc(CN5CCCCC5)c4)cc23)cn1 [Compound 30]

EC50 (CLK2): 2 nM
EC50 (CLK3): 14 nM
Structure (SMILES): Cc1nnc(-c2ccc3cnc(NC(=O)c4ccnc(SC5CCN(C)CC5)c4)cc3c2)s1 [Compound 19]

EC50 [1]: 4 nM
Structure (SMILES): CN1CCN(c2ccc(NC(=O)c3n[nH]c4ccc(-c5cncc(CN6CCC(F)(F)C6)c5)cc34)cn2)CC1 [Compound 31]

EC50 [1]: 356 nM
Structure (SMILES): Cc1n[nH]c2ccc(-c3cncc(OC[C@@H](N)Cc4ccccc4)c3)cc12 [Compound 3]

The remaining lines, values behind:

Structure (SMILES): CN1CCN(c2ccc(C(=O)Nc3cc4cc(-c5nncs5)ccc4cn3)cn2)CC1 [Compound 18]
EC50 (CLK2): 2 nM
EC50 (CLK3): 54 nM

Structure (SMILES): CCC(=O)Nc1cncc(-c2ccc3[nH]nc(-c4nc5c(-c6cccnc6)cncc5[nH]4)c3c2)c1 [Compound 40]
EC50 [1]: 13 nM
EC50 (CLK2): 3 nM
EC50 (CLK3): 14 nM

Structure (SMILES): Cc1n[nH]c2ccc(-c3cncc(OC[C@H](N)Cc4ccccc4)n3)cc12 [Compound 2]
EC50 [1]: 253 nM
fold induction at 3 µM [2, 3]: 0.01
fold induction at 3 µM [2, 4]: 0.05
fold induction at 3 µM [2, 5]: 0.02
fold induction at 3 µM [2, 6]: 0.05
fold induction at 3 µM [2, 7]: 0.07
fold induction at 3 µM [2, 8]: 0.13
fold induction at 3 µM [2, 9]: 0.05
fold induction at 3 µM [2, 10]: 0.02
fold induction at 3 µM [2, 11]: 0.14
fold induction at 3 µM [2, 12]: 0.32
fold induction at 3 µM [2, 13]: 0.13

Structure (SMILES): CN(C)CCN(C)c1ccc(NC(=O)c2n[nH]c3ccc(-c4cncc(CN5CCCCC5)c4)cc23)cn1 [Compound 6]
EC50 [1]: 65 nM
fold induction at 3 µM [2, 3]: 0.04
fold induction at 3 µM [2, 4]: 0.06
fold induction at 3 µM [2, 5]: 0.03
fold induction at 3 µM [2, 6]: 0.06
fold induction at 3 µM [2, 7]: 0.05
fold induction at 3 µM [2, 8]: 0.1
fold induction at 3 µM [2, 9]: 0.04
fold induction at 3 µM [2, 10]: 0.01
fold induction at 3 µM [2, 11]: 0.1
fold induction at 3 µM [2, 12]: 0.31
fold induction at 3 µM [2, 13]: 0.07
EC50 (CLK3): 17 nM

Structure (SMILES): CN(C)C(=O)Nc1cncc(-c2ccc3[nH]nc(C(=O)Nc4cccnc4)c3c2)c1 [Compound 34]
EC50 [1]: 176 nM

Structure (SMILES): CN1CCN(Cc2ccc(NC(=O)c3n[nH]c4ccc(-c5cccnc5)cc34)cn2)CC1 [Compound 36]
EC50 [1]: 37 nM

Structure (SMILES): COc1ccc(NC(=O)c2n[nH]c3ccc(-c4cncc(CO)c4)cc23)cn1 [Compound 37]
EC50 [1]: 97 nM

Structure (SMILES): Nc1ncc(NC(=O)c2n[nH]c3ccc(-c4cncc(CN5CCCCC5)c4)cc23)cn1 [Compound 33]
EC50 [1]: 30 nM
